This is an account of results in patent US10844091B2 (priority 2017, dated 2020).

Marks after values point to notes of the source that are not given here. Non-standard residues stand in square brackets, D forms with d.

Assay [1] deals with rat models with AD. Briefly: Open field (OF) test, scopolamine-induced Alzheimer's disease model. In kind it is in vivo. Conditions: scopolamine AD rats; 0.1 mg/kg i.n. 10 days; p<0.05. The method, then:
White random-bred adult male rats weighing 200-240 g were used. Groups of 7 animals per group were formed. 1st group—control, 2nd—pathology, 3rd—comparator drug, 4th-6th—neuropeptides.
(§1) The drugs were administered daily, once a day.
After a course of treatment with the preparations, the CNS function of the animals was evaluated according to the open field (OF), extrapolation escape (EE), and conditioning passive avoidance reflex (CPAR) tests [Guidelines for conducting nonclinical studies of pharmaceuticals/edited by A. N. Mironov, MD, PhD, Part 1, M.: Grief and K, 2012-944 p.; Methods of behavior analysis in neuroscience—London, New York, Washington: CRCPress, 2001.-329 p.], and also The Porsolt swim test (PST) [Methods of behavior analysis in neuroscience—London, New York, Washington: CRCPress, 2001.-329 p; Porsolt R. D. Depression: A new animal model sensitive to antidepressant treatments/R. D. Porsolt, M. LePichon, M. Oalfre//Nature.—1977.—Vol. 266.—P. 730-732.].
The OF and EE tests were conducted on the 1st day, PST—on the 2nd day, CPAR—on the 1st and 10th day post treatment with the preparations. […] The antiamnesic action (AA) in the CPAR test was calculated using Butler's formula [K. S. Radionova. […] The brain was extracted and weighed, and the brain weight coefficient (BWC) was calculated. […]

Assay [2] has as its system intact animals and animals with reserpine-induced depression. Briefly: Open Field Test, intact animals and animals with reserpine-induced depression. Conditions: for Emotional reactions and concomitant vegetative state (total number of grooming acts, fecal boluses, and urinations) / Orientation and exploratory activity (number of explored openings and upright positions) / Sum of all results / Locomotor activity (number of squares): imipramine 15 mg/kg i.p., tetrapeptide (LYS) 0.02 mg/kg i.n. In kind it is in vivo, rat. The protocol:
The experiment was conducted on 16 white random-bred adult male rats weighing:
180-220 g. The antidepressant activity of tetrapeptide (LYS), a neuroprotector, at a 0.02 mg/kg dose intranasally (i.n.) was evaluated. […] The experiment was conducted in two stages. […] 25-30 min. prior to the start of the experiment, the animals were administered their respective drugs. The animals in the control group were administered 0.9% NaCl solution i.p. and i.n. in the volume equal to the volume of the medications. After that, the animals of all groups were placed in the open field (OF) for 3 min., and their locomotor (number of crossed squares), orientation, and exploratory (number of upright positions and explored openings) activity as well as their emotional reactions (fecal boluses, urination, grooming) were evaluated. The indicators of depression in the animals (latent immobilization period, the number of such instances, and their total duration) were evaluated in the Popsolt swim test (PST) over 6 min. In the next 2 days, all the medications were administered at the same dose once a day; the last administration—30 min before the depressogenic sympatholytics of reserpine. Reserpine was administered on the 3rd day (2nd stage of the experiment) at a 4 mg/kg dose i.p. (as a suspension stabilized with Tween-80). Animals in all 3 groups were evaluated 6-7 hr. later in the OF and PST.
Test results were statistically processed. When the data distribution was normal, the parametric Student's t-distribution test was applied, when it was absent, the non-parametric MannWhitney U-test was used. When processing the results in an alternative form (presence/absence of the indicator), Fisher's angular transformation φ was applied. Wilcoxon paired t-criterium test was used for the intra-group statistical evaluation of the changed in the animal test results prior and post simulated depression. The results were considered to be statistically significant when p<0.05.

For assay [3], the system named is malonic aldehyde. Briefly: Malonic aldehyde content in the brain of rat models with Alzheimer's disease. The assay is classed as in vivo. Conditions: tetrapeptide 0.1 mg/kg.
In assay [4] the test system is butyrylcholinesterase. Conditions: tetrapeptide 0.1 mg/kg. The method, then:
Scopolamine was administered i.p. to the animals in all groups except for the control at a 1 mg/kg dose daily, once a day for 27 days. From the 28th day on, the animals in groups 2 and 3 were administered the comparator drug and the claimed preparation respectively over the course of 10 days. The drugs were administered daily, once a day.
The tetrapeptides were administered i.n at a 0.1 mg/kg dose. The animals in the pathology group received 0.9% sodium chloride solution i.n. and i.p. as a placebo.
A procedure for the isolation of noradrenaline (together with adrenaline), dopamine, 5-hydroxy tryptamine and histamine from the same tissue sample using a single column of strongly acidic cation exchange resin 1C. […] Determination of ATP content in tissue//Methods for biochemical research/Edited by prof. M. I. Prokhorova, Leningrad, pub.

In assay [5] the test system is reduced glutathione. Briefly: Reduced glutathione level in the brain of rat models with Alzheimer's disease. In kind it is in vivo. Conditions: tetrapeptide 0.1 mg/kg. The protocol: as §1
Standard biochemical methods were used to determine the content and activity of antioxidant defense enzymes and products of lipid peroxidation: malonic dialdehyde (MDA) [Modern Biochemistry Methods/[edited by V. N. Orekhovich]; M. Medicine, 1977, 392 pp]; superoxide dismutase (SOD) [O. P. Makarevich Activity of superoxide dismutase in blood in the acute period of various diseases/O. P. Makarevich, P. P. Golikov//Lab. Science, 1983, No 6, pp 24-27]; catalase [Methods for the Determination of Catalase Activity/M. A. Korolyuk, L. I. Ivanova, I. G. Mayorova, et al//Lab. Science, 1988, No 1, pp 16-19]; and reduced glutathione [T. A. Kochetov A Practical Guide to Enzymology. M. Nauka, 1980, 280 pp].

The mark [6] stands for this setting: R - reserpine-induced depression.

“acetyl-D-Lys-Lys-Arg-Arg-amide (Ac-[dK]KRR-NH2; SMILES CC(=O)N[C@H](CCCCN)C(=O)N[C@@H](CCCCN)C(=O)N[C@@H](CCCNC(=N)N)C(=O)N[C@@H](CCCNC(=N)N)C(N)=O) [tetrapeptide (LYS), peptide acetyl-X-ARG-ARG-amide, X = D- and L-amino acid residues of lysine]”: the “reduction of the number of grooming acts in the OF” value in assay [1] amounted to 44.7%. In assay [2] (I - intact animals), the “Emotional reactions and concomitant vegetative state (total number of grooming acts, fecal boluses, and urinations)” value was 1.8 ± 0.77^; the “Orientation and exploratory activity (number of explored openings and upright positions)” value was 5.8 ± 0.77; the “Sum of all results” value was 11.6 ± 2.49*^. For the same substance, the “Locomotor activity (number of squares)” value in assay [2] (I - intact animals, 3 min) is given as 4.0 ± 1.34*^. Moreover, the “Locomotor activity (number of squares)” value in assay [2] (R - reserpine-induced depression (4 mg/kg i.p.)) is listed as 3.4 ± 2.4. Further, in assay [2] (setting [6]), the “Emotional reactions and concomitant vegetative state (total number of grooming acts, fecal boluses, and urinations)” value came to 0.2 ± 0.2; the “Orientation and exploratory activity (number of explored openings and upright positions)” value is on record as 4.6 ± 2.4; the “Sum of all results” value was found to be 8.2 ± 4.98. Also, in assay [2] (R vs I), the “Emotional reactions and concomitant vegetative state, % change reserpine-induced depression vs. intact animals” value is “(−88.9%) ®”; the “Locomotor activity, % change reserpine-induced depression vs. intact animals” value is “(−15.0%)”; the “Orientation and exploratory activity, % change reserpine-induced depression vs. intact animals” value was “(−20.69%)”; the “Sum of all results, % change reserpine-induced depression vs. intact animals” value was “(−29.3%)”. For the same substance, in assay [2] (reserpine-induced depression), the “decrease of emotional reaction level compared to intact animals” value is 9 times; the “reduction of locomotor activity (crossed squares) compared to intact animals” value was 15%; the “reduction of orientation and exploratory activity compared to intact animals” value came to 20.7%; the “reduction of the sum of all types of activities compared to intact animals” value is 29.3%. Besides, the “reduction of malonic aldehyde content in the brain relative to the pathology group” value in assay [3] amounted to 39.8%. For the same substance, the “butyrylcholinesterase activity in the brain” value in assay [4] is listed as “significantly increases”. Besides, in assay [5], the “increase of the level of reduced glutathione in the brain” value was determined as 36.6%.
